Literature values, collected in US7985432B2, “Insect repellent” (Bioniche Life Sciences, Inc., priority 2003, dated 2011).

Test system: Mosquitoes

CC1=COC(=O)C2C(C)CCC12 (stereo not shown) [Nepetalactone]
Effectiveness at repelling mosquitoes relative to DEET: about ten times more effective at repelling mosquitoes than DEET
